The text below walks through data of patent publication US5770617A, “Terbenzimidazoles useful as antifungal agents” (Rutgers, The State University of New Jersey, priority 1997, dated 1998).

Data set [1] deals with KBV-1 cells (multidrug-resistant variant, overexpress MDR1). Kind of data set: MTT cytotoxicity assay, KBV-1. It counts as cell-based, human. How it is done:
(§1) The cytotoxicity was determined using the as MTT-microtiter plate tetrazolinium cytotoxicity assay (MTA) following the procedures of F. Denizot et al., J. Immunol. Methods, 89, 271 (1986); J. Carmichael et al., Cancer Res, 47, 936 (1987) and T. J. Mosmann et al., Immunol. Methods, 65, 55 (1983). The human lymphoblast RPMI 8402 and its camptothecin-resistant variant cell line, CPT-K5 were provided by Dr. Toshiwo Andoh (Aichi Cancer Center Research Institute, Nagoya, Japan). See, for example, T. Andoh et al., Adv. Pharmacol., 29B, 93 (1994). The cytotoxicity assay was performed using 96-well microtiter plates. Cells were grown in suspension at 37 ° C. in 5% CO2 and maintained by regular passage in RPMI medium supplemented with 10% heat inactivated fetal bovine serum, L-glutamine (2 mM), penicillin (100 U/ml), and streptomycin (0.1 mg/ml). For determination of IC50, cells were exposed continuously with varying concentrations of drug concentrations and MTT assays were performed at the end of the fourth day.
(§2) The drug sensitive human epidermoid carcinoma KB3-1 cell line (S. Aliyama et al., Somatic Cell Mol. Genet., 11, 117 (1985)) and its vinblastine-selected multidrug-resistant variant KBV-1 cells (D. W. Shen et al., Science, 32, 643 (1986)) were provided by Dr. Michael Gottesmann (National Cancer Institute, Bethesda, Md.). […]
In general terms: Formazan colour is commonly taken as a measure of viable cells.

Data set [2] concerns human epidermoid carcinoma KB3-1 cell line. Kind of data set: MTT cytotoxicity assay, KB3-1. It counts as cell-based. The following applies: KB 3-1, 96 h, read-out: Cytotoxicity IC50 KB3-1. How it is done:
as §1, §2

The test system of data set [3] is yeast cells expressing yeast topoisomerase I. The data set can be described thus: Yeast cytotoxicity assay, yeast topoisomerase I. It counts as cell-based, S. cerevisiae. From the text: The topoisomerase I-specific in vivo cytotoxicity assay was adapted from A. M. Knab et al., J. Biol. Chem., 268, 22322 (1993). In this system, various topoisomerase I genes or cDNAs cloned into the single-copy yeast plasmid vector (YCpGAL1; Knab et al., cited above) are expressed under the control of the GAL1 promoter in the JN2-134 strain of S. cerevisiae (MAT, rad52::Leu2, trp1, ade2-1, his7, ura3-52, ise1, top1-1, and leu2; M. A. Bjornsti et al., Cancer Res., 49, 6318 (1989)). The topoisomerase I gene or cDNA constructs in the vector are, respectively, the wild-type yeast topoisomerase I gene (YCpGAL-ScTOP1; need cite (1989)), a nonfunctional topoisomerase I gene where the active site tyrosine-727 is mutated to phenylalanine (YCPGAL1-Sctop1Y727; A. M. Knab et al., J. Biol. Chem., 268, 22322 (1993)), and the wild-type human topoisomerase I cDNA (YCp-GAL-hTOP1; M. A. Bjornsti et al., Cancer Res., 49, 6318 (1989)).
To qualitatively test the cytotoxicity and the topoisomerase I specificity of the drugs, yeast cells containing the specified plasmid were grown in dropout medium supplemented with uracil, 2% galactose, and the drug being tested.

Each structure is given as a SMILES string.

Turning to `c1ccc(-c2ccc3[nH]c(-c4ccc5[nH]c(-c6ccc7[nH]cnc7c6)nc5c4)nc3c2)cc1` [Compound 13, 5-Phenyl-2-[2'(benzimidazol-5"-yl)benzimidazol-5'-yl]benzimidazole], in data set [1], the “difference between IC50 values in KB 3-1 and KB V-1 cells” value is given as “little difference”. The IC50 in data set [2] was 580 nM.

With `CC[C@@]1(O)C(=O)OCc2c1cc1n(c2=O)Cc2cc3ccccc3nc2-1` [camptothecin], in data set [3], the “cytotoxicity to yeast cells expressing functional yeast topoisomerase I” value is recorded as “camptothecin-sensitive” and the “resistance of yeast cells expressing yeast topoisomerase I relative to yeast cells expressing human topoisomerase I” value is recorded as “at least ten times more resistant”.

The IC50 is the concentration at which inhibition is half-maximal.
